Reference: patent publication US12655116B2, “Substituted isophthalic acid diamides” (Bayer Aktiengesellschaft, priority 2020, dated 2026)

Columns and labels:
ABUTH [1] = experiment: Pre-emergence herbicidal action against ABUTH; format: in vivo, Abutilon theophrasti
Outline: (§1)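 Herbicidal effect was assessed 3 weeks after treatment by visual comparison with untreated controls, 100% denoting dead plants. Aqueous WP or EC preparations had been applied at 600 to 800 l/ha with 0.2% wetting agent to the soil covering freshly sown seeds.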

ALOMY [2] = experiment: Pre-emergence herbicidal action against ALOMY; format: in vivo, Alopecurus myosuroides; details: pre-emergence
Outline: as §1

AMARE [3] = experiment: Pre-emergence herbicidal action against AMARE; format: in vivo, Amaranthus retroflexus
Outline: as §1

AVEFA = experiment: Pre-emergence herbicidal action against AVEFA; format: in vivo, Avena fatua; details: pre-emergence
Outline: as §1

ECHCG [4] = experiment: Pre-emergence herbicidal action against ECHCG; format: in vivo, Echinochloa crus-galli
Outline: as §1

LOLRI = experiment: Pre-emergence herbicidal action against LOLRI; format: in vivo, Lolium rigidum; details: 80 g/ha
Outline: as §1

MATIN [5] = experiment: Pre-emergence herbicidal action against MATIN; format: in vivo, Matricaria inodora
Outline: as §1

POLCO = experiment: Pre-emergence herbicidal action against POLCO; format: in vivo, Polygonum convolvulus; details: dosage 80 g/ha
Outline: as §1

SETVI [6] = experiment: Pre-emergence herbicidal action against SETVI; format: in vivo, Setaria viridis; details: dosage 80 g/ha
Outline: as §1

VERPE [7] = experiment: Pre-emergence herbicidal action against VERPE; format: in vivo, Veronica persica; details: dosage 80 g/ha
Outline: as §1

VIOTR [8] = experiment: Pre-emergence herbicidal action against VIOTR; format: in vivo, Viola tricolor
Outline: as §1

ABUTH [9] = experiment: Post-emergence herbicidal action against ABUTH; format: in vivo, Abutilon theophrasti; details: visual assessment about 3 weeks after treatment vs untreated controls
Outline: (§2)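 Post-emergence greenhouse test; one-leaf stage, 2–3 wk post-sowing, sandy loam. Foliar spray of WP/EC in water, 600–800 l/ha, +0.2% wetting agent. Visual % action at ~3 wk vs untreated (100% = plants dead).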

ALOMY [10] = experiment: Post-emergence herbicidal action against ALOMY; format: in vivo, Alopecurus myosuroides; details: visual assessment about 3 weeks after treatment vs untreated controls
Outline: as §2

AMARE [11] = experiment: Post-emergence herbicidal action against AMARE; format: in vivo, Amaranthus retroflexus; details: 20 g/ha, visual assessment about 3 weeks after treatment, 100% = plants have died, 0% = like control plants
Outline: as §2

ECHCG [12] = experiment: Post-emergence herbicidal action against ECHCG; format: in vivo, Echinochloa crus-galli
Outline: as §2

MATIN [13] = experiment: Post-emergence herbicidal action against MATIN; format: in vivo, Matricaria inodora
Outline: as §2

PHBPU [14] = experiment: Post-emergence herbicidal action against PHBPU; format: in vivo, Pharbitis purpurea
Outline: as §2

SETVI [15] = experiment: Post-emergence herbicidal action against SETVI; format: in vivo, Setaria viridis; details: dosage 20 g/ha
Outline: as §2

VERPE [16] = experiment: Post-emergence herbicidal action against VERPE; format: in vivo, Veronica persica; details: Veronica persica, 504 h, 20 g/ha
Outline: as §2

VIOTR [17] = experiment: Post-emergence herbicidal action against VIOTR; format: in vivo, Viola tricolor
Outline: as §2

PHBPU [18] = experiment: Pre-emergence herbicidal action against PHBPU; format: in vivo, Pharbitis purpurea
Outline: as §1

DIGSA [19] = experiment: Pre-emergence herbicidal action against DIGSA; format: in vivo, Digitaria sanguinalis
Outline: as §1

DIGSA [20] = experiment: Post-emergence herbicidal action against DIGSA; format: in vivo, Digitaria sanguinalis; details: 20 g/ha
Outline: as §2

[21] = Tripleurospermum inodorum, 504 h, dosage 20 g/ha
[22] = 80 g/ha, scored visually after 3 weeks vs untreated controls (100% = plants have died, 0% = like control plants)
[23] = dosage 20 g/ha, scored visually after 3 weeks vs untreated controls, 100% = plants have died, 0% = like control plants
[24] = 20 g/ha, scored visually after 3 weeks vs untreated controls, 100% = plants have died, 0% = like control plants

## CCCNC(=O)c1c(C(F)F)ccc(C(=O)Nc2nnnn2C)c1C [Example 1-345]
ABUTH [1]; Abutilon theophrasti, 504 h, 80 g/ha, scored visually after 3 weeks vs untreated controls (100% = plants have died, 0% = like control plants)
  pest or weed control at 80 g/ha: 100%
ABUTH [1]; Abutilon theophrasti, 504 h, dosage 20 g/ha, scored visually after 3 weeks vs untreated controls, 100% = plants have died, 0% = like control plants, read-out: Pre-emergence action against ABUTH (herbicidal activity in percent)
  pest or weed control at 20 g/ha: 100%
ALOMY [2]; Alopecurus myosuroides, 504 h, 80 g/ha, scored visually after 3 weeks vs untreated controls (100% = plants have died, 0% = like control plants)
  pest or weed control at 80 g/ha: 90%
ALOMY [2]; Alopecurus myosuroides, 504 h, 20 g/ha, scored visually after 3 weeks, 100% = plants have died, 0% = like control plants
  pest or weed control at 20 g/ha: 80%
AMARE [3]; Amaranthus retroflexus, 504 h, 20 g/ha, scored visually after 3 weeks vs untreated controls, 100% = plants have died, 0% = like control plants
  pest or weed control at 20 g/ha: 100%
AMARE [3]; Amaranthus retroflexus, 504 h, 80 g/ha, scored visually after 3 weeks vs untreated controls, 100% = plants have died, 0% = like control plants
  pest or weed control at 80 g/ha: 100%
AVEFA; Avena fatua, 504 h, 80 g/ha
  pest or weed control at 80 g/ha: 90%
AVEFA; Avena fatua, 504 h, 20 g/ha, scored visually after 3 weeks, 100% = plants have died, 0% = like control plants
  pest or weed control at 20 g/ha: 80%
ECHCG [4]; Echinochloa crus-galli, 504 h, 20 g/ha
  pest or weed control at 20 g/ha: 90%
ECHCG [4]; Echinochloa crus-galli, 504 h, 80 g/ha
  pest or weed control at 80 g/ha: 100%
LOLRI; Lolium rigidum, 504 h
  pest or weed control at 80 g/ha: 80%
MATIN [5]; [21]
  pest or weed control at 20 g/ha: 100%
MATIN [5]; Tripleurospermum inodorum, 504 h, dosage 80 g/ha
  pest or weed control at 80 g/ha: 100%
POLCO; Fallopia convolvulus, 504 h
  pest or weed control at 80 g/ha: 90%
SETVI [6]; Setaria viridis, 504 h
  pest or weed control at 80 g/ha: 100%
VERPE [7]; Veronica persica, 504 h
  pest or weed control at 80 g/ha: 80%
VIOTR [8]; Viola tricolor, 504 h, dosage 80 g/ha
  pest or weed control at 80 g/ha: 100%
ABUTH [9]; Abutilon theophrasti, 504 h, dosage 5 g/ha
  pest or weed control at 5 g/ha: 80%
ABUTH [9]; Abutilon theophrasti, 504 h, dosage 20 g/ha
  pest or weed control at 20 g/ha: 90%
ALOMY [10]; Alopecurus myosuroides, 504 h, dosage 5 g/ha
  pest or weed control at 5 g/ha: 80%
ALOMY [10]; Alopecurus myosuroides, 504 h, dosage 20 g/ha
  pest or weed control at 20 g/ha: 90%
AMARE [11]; Amaranthus retroflexus, 504 h
  pest or weed control at 20 g/ha: 100%
ECHCG [12]; Echinochloa crus-galli, 504 h, dosage 20 g/ha
  pest or weed control at 20 g/ha: 90%
MATIN [13]; [21]
  pest or weed control at 20 g/ha: 80%
PHBPU [14]; Ipomoea purpurea, 504 h, dosage 5 g/ha
  pest or weed control at 5 g/ha: 80%
PHBPU [14]; Ipomoea purpurea, 504 h, dosage 20 g/ha
  pest or weed control at 20 g/ha: 80%
SETVI [15]; Setaria viridis, 504 h
  pest or weed control at 20 g/ha: 90%
VERPE [16]
  pest or weed control at 20 g/ha: 90%
VIOTR [17]; Viola tricolor, 504 h, 5 g/ha
  pest or weed control at 5 g/ha: 90%
VIOTR [17]; Viola tricolor, 504 h, 20 g/ha
  pest or weed control at 20 g/ha: 100%

## CCn1nnnc1NC(=O)c1ccc(C(F)(F)F)c(C(=O)NCC(F)F)c1Br [Example 2-212]
ABUTH [1]; [22]
  Pre-emergence action against ABUTH (herbicidal activity): 100%
ALOMY [2]; [22]
  Pre-emergence action against ALOMY (herbicidal activity): 100%
AMARE [3]; [22]
  Pre-emergence action against AMARE in %: 100%
AVEFA; 80 g/ha
  Pre-emergence action against AVEFA in %: 90%
ECHCG [4]; 80 g/ha
  Pre-emergence action against ECHCG in %: 90%
LOLRI
  Pre-emergence action against LOLRI in %: 90%
MATIN [5]; dosage 80 g/ha
  Pre-emergence action against MATIN in %: 100%
PHBPU [18]; dosage 80 g/ha
  Pre-emergence action against PHBPU in %: 80%
POLCO
  Pre-emergence action against POLCO in %: 80%
SETVI [6]
  Pre-emergence action against SETVI in %: 100%
VIOTR [8]; dosage 80 g/ha
  Pre-emergence action against VIOTR in %: 100%
DIGSA [19]; dosage 80 g/ha
  Pre-emergence action against DIGSA in %: 100%
ECHCG [12]; dosage 20 g/ha
  Post-emergence action against ECHCG in %: 80%
DIGSA [20]
  Post-emergence action against DIGSA: 100%

## CCn1nnnc1NC(=O)c1ccc(C(F)(F)F)c(C(=O)NCC2CC2)c1Cl [Example 2-132]
ABUTH [1]; [22]
  Pre-emergence action against ABUTH (herbicidal activity): 100%
ABUTH [1]; [23]
  Pre-emergence action against ABUTH (herbicidal activity in percent): 100%
ALOMY [2]; [22]
  Pre-emergence action against ALOMY (herbicidal activity): 90%
AMARE [3]; [24]
  Pre-emergence action against AMARE in %: 100%
AMARE [3]; [22]
  Pre-emergence action against AMARE in %: 100%
AVEFA; 80 g/ha
  Pre-emergence action against AVEFA in %: 90%
ECHCG [4]; 80 g/ha
  Pre-emergence action against ECHCG in %: 100%
LOLRI
  Pre-emergence action against LOLRI in %: 90%
MATIN [5]; dosage 20 g/ha
  Pre-emergence action against MATIN in %: 100%
MATIN [5]; dosage 80 g/ha
  Pre-emergence action against MATIN in %: 100%
PHBPU [18]; dosage 80 g/ha
  Pre-emergence action against PHBPU in %: 90%
POLCO
  Pre-emergence action against POLCO in %: 80%
SETVI [6]
  Pre-emergence action against SETVI in %: 100%
VIOTR [8]; dosage 20 g/ha
  Pre-emergence action against VIOTR in %: 100%
VIOTR [8]; dosage 80 g/ha
  Pre-emergence action against VIOTR in %: 100%
DIGSA [19]; dosage 20 g/ha
  Pre-emergence action against DIGSA in %: 80%
DIGSA [19]; dosage 80 g/ha
  Pre-emergence action against DIGSA in %: 100%
ABUTH [9]; dosage 20 g/ha
  Post-emergence action against ABUTH in %: 80%
AMARE [11]
  Post-emergence action at 20 g/ha against AMARE in %: 90%
ECHCG [12]; dosage 20 g/ha
  Post-emergence action against ECHCG in %: 90%
MATIN [13]; dosage 5 g/ha
  Post-emergence action against MATIN in %: 80%
MATIN [13]; dosage 20 g/ha
  Post-emergence action against MATIN in %: 80%
SETVI [15]
  Post-emergence action against SETVI in %: 80%
VIOTR [17]; 20 g/ha
  Post-emergence action against VIOTR in %: 90%
DIGSA [20]
  Post-emergence action against DIGSA: 80%

## COCCNC(=O)c1c(C(F)(F)F)ccc(C(=O)Nc2nnnn2C)c1Cl [Example 1-138]
ABUTH [1]; [22]
  Pre-emergence action against ABUTH (herbicidal activity): 100%
ABUTH [1]; [23]
  Pre-emergence action against ABUTH (herbicidal activity in percent): 100%
ALOMY [2]; [22]
  Pre-emergence action against ALOMY (herbicidal activity): 90%
AMARE [3]; [24]
  Pre-emergence action against AMARE in %: 100%
AMARE [3]; [22]
  Pre-emergence action against AMARE in %: 100%
ECHCG [4]; 80 g/ha
  Pre-emergence action against ECHCG in %: 100%
LOLRI
  Pre-emergence action against LOLRI in %: 90%
MATIN [5]; dosage 20 g/ha
  Pre-emergence action against MATIN in %: 90%
MATIN [5]; dosage 80 g/ha
  Pre-emergence action against MATIN in %: 100%
PHBPU [18]; dosage 20 g/ha
  Pre-emergence action against PHBPU in %: 80%
PHBPU [18]; dosage 80 g/ha
  Pre-emergence action against PHBPU in %: 90%
POLCO
  Pre-emergence action against POLCO in %: 90%
SETVI [6]
  Pre-emergence action against SETVI in %: 100%
VERPE [7]
  Pre-emergence action against VERPE in %: 90%
VIOTR [8]; dosage 20 g/ha
  Pre-emergence action against VIOTR in %: 100%
VIOTR [8]; dosage 80 g/ha
  Pre-emergence action against VIOTR in %: 100%
DIGSA [19]; dosage 20 g/ha
  Pre-emergence action against DIGSA in %: 100%
DIGSA [19]; dosage 80 g/ha
  Pre-emergence action against DIGSA in %: 100%
ALOMY [10]; dosage 20 g/ha
  Post-emergence action against ALOMY in %: 90%
AMARE [11]
  Post-emergence action at 20 g/ha against AMARE in %: 90%
ECHCG [12]; dosage 5 g/ha
  Post-emergence action against ECHCG in %: 80%
ECHCG [12]; dosage 20 g/ha
  Post-emergence action against ECHCG in %: 90%
PHBPU [14]; dosage 5 g/ha
  Post-emergence action against PHBPU in %: 80%
PHBPU [14]; dosage 20 g/ha
  Post-emergence action against PHBPU in %: 90%
SETVI [15]
  Post-emergence action against SETVI in %: 80%
